Reference: article PMC10780011 (2023)

Tests used:
[1] = test system: d(5′-CGCGAATTCGCG-3′)2 (DNA, duplex) CGCGAATTCGCG; assay: ethidium bromide displacement, fluorescence quenching, double-log plot; details: 100 mM phosphate; pH 7.0, 298 K; apparent; ethidium bromide displaced; 20 μM DNA
[2] = test system: d(5′-CGCGAATTCGCG-3′)2 (DNA, duplex) CGCGAATTCGCG; assay: 1H NMR titration, NOESY; details: 100 mM phosphate, pH 7.0, 298 K, H2O:D2O 9:1

Compound | Kb [1] | binding ([2]; minor and major groove, non-specific) | binding ([2]; 10 mM NaCl, partial intercalation T7/T8 and groove, precipitates without NaCl)
[Ru+2].[Ru+2].[Ru+2].c1cc[cH-]c1.c1cc[cH-]c1.c1cc[cH-]c1.c1ccc(-c2ccc(-c3ccc(-c4ccccc4)cc3)cc2)cc1 | 2.803 ± 0.121 × 10^3 M^−1 |  | 
[Ru+2].c1cc[cH-]c1.c1ccc(-c2ccc(-c3ccc(-c4ccccc4)cc3)cc2)cc1 | 8.111 ± 0.001 × 10^3 M^−1 |  | yes
[Ru+2].c1cc[cH-]c1.c1ccc(-c2ccccc2)cc1 | 2.330 ± 0.001 × 10^3 M^−1 |  | 

More lines, main results first:

Kb [1] | Compound | binding ([2]; minor and major groove, non-specific) | binding ([2]; 10 mM NaCl, partial intercalation T7/T8 and groove, precipitates without NaCl)
5.933 ± 0.001 × 10^3 M^−1 | [Ru+2].[Ru+2].c1cc[cH-]c1.c1cc[cH-]c1.c1ccc(-c2ccc(-c3ccc(-c4ccccc4)cc3)cc2)cc1 | yes | 
0.815 ± 0.001 × 10^3 M^−1 | [Ru+2].[Ru+2].c1cc[cH-]c1.c1cc[cH-]c1.c1ccc(-c2ccc(-c3ccccc3)cc2)cc1 |  | 
3.532 ± 0.001 × 10^3 M^−1 | [Ru+2].c1cc[cH-]c1.c1ccc(-c2ccc(-c3ccccc3)cc2)cc1 |  | 
